In brackets after ≈: the same amount, converted by molar mass. Numbered stars: 1 amine (or outer) side, 2 acyl side, 3 side chain; on linkers, the order of the positions; unused ones are H or OH. Square brackets hold non-standard residues; d marks the D form. Peptide text beside a SMILES is read from it. * marks the point of attachment. N(1S-cyclohexylethyl)Gly = C[C@H](NCC(=O)O)C1CCCCC1; Gly(Nα-4-Cl-benzyl) = O=C(O)CNCc1ccc(Cl)cc1; N(4-Br-benzyl)Gly = O=C(O)CNCc1ccc(Br)cc1; N(2-thienylmethyl)Gly = O=C(O)CNCc1cccs1; N(tridecyl)Gly = CCCCCCCCCCCCCNCC(=O)O; N(4-F-Bzl)Gly = O=C(O)CNCc1ccc(F)cc1; X1 = CC(c1ccccc1)N(CC(=O)[*:2])[*:1]; Gly(N-2-aminoethyl) = NCCNCC(=O)O; Myristoyl = CCCCCCCCCCCCCC(=O)*; NFurfurylGly = O=C(O)CNCc1ccco1; Gly(N(CH2)3NH2) = NCCCNCC(=O)O; Gly(N-cHex) = O=C(O)CNC1CCCCC1; Nphe = O=C(O)CNCc1ccccc1; NPrGly = CCCNCC(=O)O; Nlys = NCCCCNCC(=O)O; Sar = CNCC(=O)O
Assays:
C. neoformans = type: cell-based, Cryptococcus neoformans; details: 72 h
Text: (§1) This screening led to the discovery of RMG9-11 (FIG. 2C). The minimum inhibitory concentration (MIC) of resynthesized RMG9-11 was initially determined against C. albicans, C. neoformans, and the ESKAPE bacteria via CSLI guidelines (CLSI. Methods for Dilution Antimicrobial Susceptibility Tests for Bacteria That Grow Aerobically, 11th Edition. Clinical and Laboratory Standards Institute (2018); CLSI. Reference method for broth dilution antifungal susceptibility testing of yeasts; approved standard-third edition; CLSI document M27-A3. Clinical and Laboratory Standards Institute (2008)). […] C. albicans clinical isolates include a reference strain (M1), fluconazole susceptible strains (M4 and M6), and fluconazole resistant strains (M2, M3, M5, and M7). ATCC 64124 is multidrug resistant C. albicans strain that is resistant to amphotericin B, fluconazole, caspofungin, and flucytosine. All MICs were performed under CSLI guidelines in triplicate on at least three different days.
(§2) The minimum inhibitory concentration (MIC) of peptoids against fungal pathogens C. albicans and C. neoformans was determined following CLSI guidelines (Reference method for broth dilution antifungal susceptibility testing of yeasts; approved standard-third edition; CLSI document M27-A3.” CLSI. 2008.). Colonies were transferred from a streaked YPD plate to 0.85% saline to reach an OD530 between 0.18 and 0.25. This inoculant was diluted 1:100 into RPMI-MOPS and then further diluted 1:20 into RPMI-MOPS. 198 μL of inoculant was seeded into each well of a 96 well black-walled plate. 2-fold serial dilutions of 100× peptoid solutions were prepared in water and 2 μL of peptoid were added to each well in triplicate. […] MIC was defined as the lowest concentration of compound preventing fungal growth. This assay was repeated 3 times on separate days with each compound.

in vitro = type: cell-based; details: human, HepG2 hepatocellular carcinoma cells
Protocol: The mammalian cell lines that were tested (HepG2, 3T3, and HaCat) were incubated with RMG9-11 for 72 hours and cell viability was determined via mitochondrial activity using an MTT reduction assay where viable cells reduce MTT to formazan. Toxicity is reported as the concentration of the peptoid that results in a 50% reduction in viable cells, termed toxicity dose 50% or TD50. […] SR is defined as the TD50 divided by MIC and provides a measure of the therapeutic window for a compound. Typically for most lead compounds that would continue through development and optimization, a SR of 10 is preferred while an SR of 100 is more desirable for a compound moving into preclinical animal model evaluation.
Hepatocellular carcinoma (HepG2), mouse fibroblast (3T3), and human keratinocyte (HaCat) cells were cultured in Dulbeco modified eagle media (DMEM) containing 10% fetal bovine serum (FBS) and 1% penicillin, streptomycin, and glutamine (PSG) at 37° C. and 5% CO2. Cells were collected and adjusted to […] to 4×10^5 cells/mL in phenol-red free DMEM and plated (100 μL) 96 well plates. 2-fold serial dilutions of 10× peptoid (11.1 μL) were added to each well in triplicate. Water (vehicle) was used as a negative control. Plates were incubated at 37° C. in 5% CO2 for 72 hours. Thiazolyl blue tetrazolium bromide (MTT) was added to each well (5 mg/mL; 20 μL) and incubated for 3 hours. Media was removed, DMSO (100 μL) was added, and plates were incubated at 37° C. for 10 minutes. Plates were read on a SPECTRAMAX M5 plate reader (Abs. 570 nm). The concentration of compound resulting in a 50% reduction in growth compared to control (toxicity dose 50%; TD50) was determined using GRAFIT. This procedure was repeated three times on separate days.

C. albicans = type: cell-based, Candida albicans; details: 24 h
Text: as §1, §2

MIC C. neoformans (C. neoformans) [µg/mL] | MIC C. albicans (C. albicans) [µg/mL] | Compound | CC50 at 72 h (in vitro) [µg/mL]
3.13 (≈ 2.9 µM) | 6.25 (≈ 5.8 µM) | CCCCCCCCCCCCCC(=O)NCC(=O)N(CCN)CC(=O)N(CC(=O)N(CCCCN)CC(=O)N(CC(=O)N(CC(=O)N(CCCN)CC(N)=O)Cc1ccccc1)Cc1ccco1)[C@@H](C)C1CCCCC1 [Compound 911-M12] (Myristoyl-G[Gly(N-2-aminoethyl)][N(1S-cyclohexylethyl)Gly][Nlys][NFurfurylGly][Nphe][Gly(N(CH2)3NH2)]-NH2) | 145 ± 35 (≈ 134 µM)
3.13 (≈ 2.98 µM) | 6.25 (≈ 5.95 µM) | CCCCCCCCCCCCCNCC(=O)N(CCN)CC(=O)N(CC(=O)N(CCCCN)CC(=O)N(CC(=O)N(CC(=O)N(CCCN)CC(N)=O)Cc1ccccc1)Cc1ccco1)[C@@H](C)C1CCCCC1 [Compound 911-M13] (H-[N(tridecyl)Gly][Gly(N-2-aminoethyl)][N(1S-cyclohexylethyl)Gly][Nlys][NFurfurylGly][Nphe][Gly(N(CH2)3NH2)]-NH2) | 140 ± 33 (≈ 133 µM)
 | >100 | CCCN(CC(=O)N(CC(=O)N(CCCCN)CC(=O)N(CC(=O)N(CC(=O)N(CCCN)CC(N)=O)Cc1ccccc1)Cc1ccco1)C(C)c1ccccc1)C(=O)CNC (stereo not shown) [SAR 1] (H-[Sar][NPrGly][X1][Nlys][NFurfurylGly][Nphe][Gly(N(CH2)3NH2)]-NH2) | > 200
 | 12.5 (≈ 12.3 µM) | CCCCCCCCCCCCCNCC(=O)N(C)CC(=O)N(CC(=O)N(CCCCN)CC(=O)N(CC(=O)N(CC(=O)N(CCCN)CC(N)=O)Cc1ccccc1)Cc1ccco1)C(C)c1ccccc1 (stereo not shown) [SAR 2] (H-[N(tridecyl)Gly][Sar][X1][Nlys][NFurfurylGly][Nphe][Gly(N(CH2)3NH2)]-NH2) | 83.9 ± 5.7 (≈ 82.6 µM)
 | 50 (≈ 52.5 µM) | CCCCCCCCCCCCCNCC(=O)N(CCC)CC(=O)N(C)CC(=O)N(CCCCN)CC(=O)N(CC(=O)N(CC(=O)N(CCCN)CC(N)=O)Cc1ccccc1)Cc1ccco1 [SAR 3] (H-[N(tridecyl)Gly][NPrGly][Sar][Nlys][NFurfurylGly][Nphe][Gly(N(CH2)3NH2)]-NH2) | 194 ± 7.5 (≈ 204 µM)
 | 6.25 (≈ 6.34 µM) | CCCCCCCCCCCCCNCC(=O)N(CCC)CC(=O)N(CC(=O)N(C)CC(=O)N(CC(=O)N(CC(=O)N(CCCN)CC(N)=O)Cc1ccccc1)Cc1ccco1)C(C)c1ccccc1 (stereo not shown) [SAR 4] (H-[N(tridecyl)Gly][NPrGly][X1][Sar][NFurfurylGly][Nphe][Gly(N(CH2)3NH2)]-NH2) | 61.8 ± 16.1 (≈ 62.7 µM)
 | 12.5 to 25 | CCCCCCCCCCCCCNCC(=O)N(CCC)CC(=O)N(CC(=O)N(CCCCN)CC(=O)N(C)CC(=O)N(CC(=O)N(CCCN)CC(N)=O)Cc1ccccc1)C(C)c1ccccc1 (stereo not shown) [SAR 5] (H-[N(tridecyl)Gly][NPrGly][X1][Nlys][Sar][Nphe][Gly(N(CH2)3NH2)]-NH2) | 157 ± 10.1 (≈ 160 µM)
 | 25 (≈ 25.8 µM) | CCCCCCCCCCCCCNCC(=O)N(CCC)CC(=O)N(CC(=O)N(CCCCN)CC(=O)N(CC(=O)N(C)CC(=O)N(CCCN)CC(N)=O)Cc1ccco1)C(C)c1ccccc1 (stereo not shown) [SAR 6] (H-[N(tridecyl)Gly][NPrGly][X1][Nlys][NFurfurylGly][Sar][Gly(N(CH2)3NH2)]-NH2) | 156 ± 4.7 (≈ 161 µM)
 | 6.25 (≈ 6.25 µM) | CCCCCCCCCCCCCNCC(=O)N(CCC)CC(=O)N(CC(=O)N(CCCCN)CC(=O)N(CC(=O)N(CC(=O)N(C)CC(N)=O)Cc1ccccc1)Cc1ccco1)C(C)c1ccccc1 (stereo not shown) [SAR 7] (H-[N(tridecyl)Gly][NPrGly][X1][Nlys][NFurfurylGly][Nphe][Sar]-NH2) | 57.7 ± 11 (≈ 57.7 µM)

Second part, the molecule before the results:

Compound | MIC C. neoformans (C. neoformans) [µg/mL] | MIC C. albicans (C. albicans) [µg/mL] | CC50 at 72 h (in vitro) [µg/mL]
CCCCCCCCCCCCCNCC(=O)N(CCC)CC(=O)N(CC(=O)N(CCCCN)CC(=O)N(CC(=O)N(CC(=O)N(CCCN)CC(N)=O)Cc1ccccc1)Cc1ccco1)Cc1ccccc1 [Compound 911-M3] (H-[N(tridecyl)Gly][NPrGly][Nphe][Nlys][NFurfurylGly][Nphe][Gly(N(CH2)3NH2)]-NH2) | 1.56 (≈ 1.52 µM) | 6.25 (≈ 6.07 µM) | 87.5 ± 10.8 (≈ 85 µM)
CCCCCCCCCCCCCNCC(=O)N(CCC)CC(=O)N(CC(=O)N(CCCCN)CC(=O)N(CC(=O)N(CC(=O)N(CCCN)CC(N)=O)Cc1ccccc1)Cc1ccco1)Cc1ccc(F)cc1 [Compound 911-M4] (H-[N(tridecyl)Gly][NPrGly][N(4-F-Bzl)Gly][Nlys][NFurfurylGly][Nphe][Gly(N(CH2)3NH2)]-NH2) | 1.56 (≈ 1.49 µM) | 6.25 (≈ 5.97 µM) | 120 ± 36.9 (≈ 114 µM)
CCCCCCCCCCCCCNCC(=O)N(CCC)CC(=O)N(CC(=O)N(CCCCN)CC(=O)N(CC(=O)N(CC(=O)N(CCCN)CC(N)=O)Cc1ccccc1)Cc1ccco1)Cc1ccc(Cl)cc1 [Compound 911-M5] (H-[N(tridecyl)Gly][NPrGly][Gly(Nα-4-Cl-benzyl)][Nlys][NFurfurylGly][Nphe][Gly(N(CH2)3NH2)]-NH2) | 1.56 (≈ 1.47 µM) | 6.25 to 12.5 | 114 ± 32.5 (≈ 108 µM)
CCCCCCCCCCCCCNCC(=O)N(CCC)CC(=O)N(CC(=O)N(CCCCN)CC(=O)N(CC(=O)N(CC(=O)N(CCCN)CC(N)=O)Cc1ccccc1)Cc1ccco1)Cc1ccc(Br)cc1 [Compound 911-M6] (H-[N(tridecyl)Gly][NPrGly][N(4-Br-benzyl)Gly][Nlys][NFurfurylGly][Nphe][Gly(N(CH2)3NH2)]-NH2) | 1.56 to 3.13 | 6.25 (≈ 5.64 µM) | 108 ± 13.6 (≈ 97 µM)
CCCCCCCCCCCCCNCC(=O)N(CCC)CC(=O)N(CC(=O)N(CCCCN)CC(=O)N(CC(=O)N(CC(=O)N(CCCN)CC(N)=O)Cc1ccccc1)Cc1ccco1)Cc1ccco1 [Compound 911-M7] (H-[N(tridecyl)Gly][NPrGly][NFurfurylGly][Nlys][NFurfurylGly][Nphe][Gly(N(CH2)3NH2)]-NH2) | 3.13 (≈ 3.07 µM) | 12.5 (≈ 12.3 µM) | 187 ± 21.5 (≈ 183 µM)
CCCCCCCCCCCCCNCC(=O)N(CCC)CC(=O)N(CC(=O)N(CCCCN)CC(=O)N(CC(=O)N(CC(=O)N(CCCN)CC(N)=O)Cc1ccccc1)Cc1ccco1)Cc1cccs1 [Compound 911-M8] (H-[N(tridecyl)Gly][NPrGly][N(2-thienylmethyl)Gly][Nlys][NFurfurylGly][Nphe][Gly(N(CH2)3NH2)]-NH2) |  | 6.25 (≈ 6.04 µM) | 108 ± 34.6 (≈ 104 µM)
CCCCCCCCCCCCCNCC(=O)N(CCC)CC(=O)N(CC(=O)N(CCCCN)CC(=O)N(CC(=O)N(CC(=O)N(CCCN)CC(N)=O)Cc1ccccc1)Cc1ccco1)C1CCCCC1 [Compound 911-M9] (H-[N(tridecyl)Gly][NPrGly][Gly(N-cHex)][Nlys][NFurfurylGly][Nphe][Gly(N(CH2)3NH2)]-NH2) | 1.56 (≈ 1.53 µM) | 12.5 (≈ 12.2 µM) | 99.5 ± 22 (≈ 97.4 µM)
CCCCCCCCCCCCCNCC(=O)N(CCC)CC(=O)N(CC(=O)N(CCCCN)CC(=O)N(CC(=O)N(CC(=O)N(CCCN)CC(N)=O)Cc1ccccc1)Cc1ccco1)[C@@H](C)C1CCCCC1 [Compound 911-M11] (H-[N(tridecyl)Gly][NPrGly][N(1S-cyclohexylethyl)Gly][Nlys][NFurfurylGly][Nphe][Gly(N(CH2)3NH2)]-NH2) | 1.56 (≈ 1.49 µM) | 3.13 to 6.25 | 82.5 ± 11.5 (≈ 78.6 µM)

Source: patent publication US20240391889A1, “ANTIMICROBIAL COMPOUNDS AND THE METHODS OF USE” (priority 2021, published 2024)
